Values joined by “and” are separate entries in the source; they are usually repeats but may differ in a detail not shown here. Equal entries are not always repeated. Where two headings read alike, the source gives them in different places.
What was measured:
Assay in all cases: Chemosensitivity, 96 h continuous exposure, MTT assay;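 on SI (NPI): adult human brain neural progenitor non-cancer cells from an epilepsy surgery patient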;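 on Selectivity Index using the NPI non-cancer cell line: adult human brain neural progenitor non-cancer cells from an epilepsy surgery patient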
Type in all cases: cell-based, human
HCT116 p53+/+ = system: HCT116 p53+/+;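 on SI (NPI): adult human brain neural progenitor non-cancer cells from an epilepsy surgery patient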;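 on Selectivity Index using the NPI non-cancer cell line: adult human brain neural progenitor non-cancer cells from an epilepsy surgery patient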
Procedure, shortened: (§1)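 IC50 is the concentration giving 50% growth reduction, derived from dose-response curves of MTT absorbance at 540 nm. Before dosing, lines were plated at 2 × 10^3 cells/well, GBM1 stem-like cells at 3 × 10^3/well, overnight at 37 °C; compound exposure lasted 96 h without interruption, vehicle 0.2% DMSO.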

MCF10A non-cancer cells = system: MCF10A non-cancer cells
Procedure, shortened: as §1

ARPE-19 non-cancer cells = system: ARPE-19 non-cancer cells
Procedure, shortened: as §1

H460 = system: H460
Procedure, shortened: as §1

HCT116 p53-/- = conditions: for SI (ARPE19): mean IC50 ARPE-19 / mean IC50 HCT116 p53-/-; for SI (MCF10A): mean IC50 MCF10A / mean IC50 HCT116 p53-/-
Procedure, shortened: as §1

HT-29 = system: HT-29
Procedure, shortened: as §1

A549 = system: A549
Procedure, shortened: as §1

CC(=O)[O-].CC(=O)[O-].CC(=O)[O-].CC(=O)[O-].CC(=O)[O-].CC(=O)[O-].[Zn+2].[Zn+2].[Zn+2].c1ccc(-c2csc(NCCN(CCNc3nc(-c4ccccn4)cs3)CCNc3nc(-c4ccccn4)cs3)n2)nc1.c1ccc(-c2csc(NCCN(CCNc3nc(-c4ccccn4)cs3)CCNc3nc(-c4ccccn4)cs3)n2)nc1 [[L2Zn3]6+]
IC50 (HCT116 p53+/+; HCT116 p53+/+, 96 h, MTT, mean of at least 3 independent experiments, read-out: Mean IC50): 466 nM
IC50 (HCT116 p53+/+; HCT116 p53+/+, mean of replicates, read-out: Mean IC50): 466 nM
IC50 (HCT116 p53+/+; HCT116 p53+/+, read-out: Mean IC50 values): 466 nM
Selectivity index (ARPE19) (HCT116 p53+/+; IC50 ARPE-19 / IC50 HCT116 p53+/+): 337.45 and 337.23
Selectivity index (MCF10A) (HCT116 p53+/+; IC50 MCF10A / IC50 HCT116 p53+/+): 346.87
Selectivity Index using the NPI non-cancer cell line (HCT116 p53+/+; IC50 NP1 / IC50 HCT116 p53+/+): 16.70
SI (ARPE19) (HCT116 p53+/+; mean IC50 ARPE-19 / mean IC50 HCT116 p53+/+): 337.45
SI (MCF10A) (HCT116 p53+/+; mean IC50 MCF10A / mean IC50 HCT116 p53+/+): 346.87
SI (NPI) (HCT116 p53+/+; mean IC50 NP1 / mean IC50 HCT116 p53+/+): 16.70
Relative potency (+ anion to no anion), Ratio + anion:no anion (HCT116 p53+/+; ratio of IC50, HCT116 p53+/+): 1
Selectivity indices relative to ARPE-19, Ratio + anion:no anion (HCT116 p53+/+; ratio of SI (ARPE-19), HCT116 p53+/+): 1
Selectivity indices relative to MCF10A, Ratio + anion:no anion (HCT116 p53+/+; ratio of SI (MCF 10A), HCT116 p53+/+): 1
IC50 (MCF10A non-cancer cells; MCF10A non-cancer, read-out: Mean IC50 values): 162000 nM
IC50 (MCF10A non-cancer cells; MCF10A, 96 h, MTT, individual run, read-out: IC50 values for each replicate): 169000 nM and 176000 nM and 140000 nM
IC50 (MCF10A non-cancer cells; MCF10A, 96 h, MTT, mean of at least 3 independent experiments, read-out: Mean IC50): 162000 nM
IC50 (MCF10A non-cancer cells; MCF10A, mean of replicates, read-out: Mean IC50): 162000 nM
Relative potency (+ anion to no anion), Ratio + anion:no anion (MCF10A non-cancer cells; ratio of IC50, MCF10A): 1
IC50 (ARPE-19 non-cancer cells; ARPE-19, 96 h, MTT, individual run, read-out: IC50 values for each replicate): 154000 nM and 160000 nM and 144000 nM and 171000 nM
IC50 (ARPE-19 non-cancer cells; ARPE-19, 96 h, MTT, mean of at least 3 independent experiments, read-out: Mean IC50): 157000 nM
IC50 (ARPE-19 non-cancer cells; ARPE-19, mean of replicates, read-out: Mean IC50): 157000 nM
IC50 (ARPE-19 non-cancer cells; ARPE-19 non-cancer, read-out: Mean IC50 values): 157000 nM
Relative potency (+ anion to no anion), Ratio + anion:no anion (ARPE-19 non-cancer cells; ratio of IC50, ARPE-19): 1
IC50 (H460; H460, 96 h, MTT, individual run, read-out: IC50 values for each replicate): 186 nM and 273 nM and 557 nM and 236 nM and 441 nM and 594 nM and 235 nM
IC50 (H460; H460, 96 h, MTT, mean of at least 3 independent experiments, read-out: Mean IC50): 360 nM
IC50 (H460; H460, mean of replicates, read-out: Mean IC50): 360 nM
IC50 (H460; H460, read-out: Mean IC50 values): 360 nM
Selectivity index (ARPE19) (H460; IC50 ARPE-19 / IC50 H460): 436.81
Selectivity index (MCF10A) (H460; IC50 MCF10A / IC50 H460): 449.00
Selectivity Index using the NPI non-cancer cell line (H460; IC50 NP1 / IC50 H460): 21.61
SI (ARPE19) (H460; mean IC50 ARPE-19 / mean IC50 H460): 436.81
SI (MCF10A) (H460; mean IC50 MCF10A / mean IC50 H460): 449.00
SI (NPI) (H460; mean IC50 NP1 / mean IC50 H460): 21.61
Relative potency (+ anion to no anion), Ratio + anion:no anion (H460; ratio of IC50, H460): 1
Selectivity indices relative to ARPE-19, Ratio + anion:no anion (H460; ratio of SI (ARPE-19), H460): 1
Selectivity indices relative to MCF10A, Ratio + anion:no anion (H460; ratio of SI (MCF 10A), H460): 1
IC50 (HCT116 p53-/-; HCT116 p53-/-, 96 h, MTT, individual run, read-out: IC50 values for each replicate): 61 nM and 91 nM and 64 nM
IC50 (HCT116 p53-/-; HCT116 p53-/-, 96 h, MTT, mean of at least 3 independent experiments, read-out: Mean IC50): 72 nM
IC50 (HCT116 p53-/-; HCT116 p53-/-, 96 h, MTT, read-out: IC50): 70 ± 13 nM
IC50 (HCT116 p53-/-; HCT116 p53-/-, mean of replicates, read-out: Mean IC50): 75 nM
IC50 (HCT116 p53-/-; HCT116 p53-/-, read-out: Mean IC50 values): 72 nM
IC50 (HCT116 p53-/-; HCT116 p53-/-, single replicate, read-out: IC50 values for each replicate): 79 nM and 86 nM
Selectivity index (ARPE19) (HCT116 p53-/-; IC50 ARPE-19 / IC50 HCT116 p53-/-): 2184.03 and 2183.99
Selectivity index (MCF10A) (HCT116 p53-/-; IC50 MCF10A / IC50 HCT116 p53-/-): 2245.00
Selectivity Index using the NPI non-cancer cell line (HCT116 p53-/-; IC50 NP1 / IC50 HCT116 p53-/-): 108.06
more active towards HCT116 p53-/- than HCT116 p53+/+ (HCT116 p53-/-; based on 96h IC50 values): ~ 6 fold
SI (ARPE19) (HCT116 p53-/-): 2184.03
SI (ARPE19) (HCT116 p53-/-; listed as [L2Zn3]^6+): over 2000
SI (MCF10A) (HCT116 p53-/-): 2245.00
SI (MCF10A) (HCT116 p53-/-; listed as [L2Zn3]^6+): over 2000
SI (NPI) (HCT116 p53-/-; mean IC50 NP1 / mean IC50 HCT116 p53-/-): 108.06
Relative potency (+ anion to no anion), Ratio + anion:no anion (HCT116 p53-/-; ratio of IC50, HCT116 p53-/-): 1
Selectivity indices relative to ARPE-19, Ratio + anion:no anion (HCT116 p53-/-; ratio of SI (ARPE-19), HCT116 p53-/-): 1
Selectivity indices relative to MCF10A, Ratio + anion:no anion (HCT116 p53-/-; ratio of SI (MCF 10A), HCT116 p53-/-): 1
IC50 (HT-29; HT29, mean of replicates, read-out: Mean IC50): 169 nM
IC50 (HT-29; HT29, read-out: Mean IC50 values): 169 nM
IC50 (HT-29; HT-29, 96 h, MTT, individual run, read-out: IC50 values for each replicate): 83 nM and 161 nM and 235 nM and 184 nM and 182 nM
IC50 (HT-29; HT-29, 96 h, MTT, mean of at least 3 independent experiments, read-out: Mean IC50): 169 nM
Selectivity index (ARPE19) (HT-29; IC50 ARPE-19 / IC50 HT29): 930.47
Selectivity index (MCF10A) (HT-29; IC50 MCF10A / IC50 HT29): 956.45
Selectivity Index using the NPI non-cancer cell line (HT-29; IC50 NP1 / IC50 HT29): 46.04
SI (ARPE19) (HT-29; mean IC50 ARPE-19 / mean IC50 HT-29): 930.47
SI (MCF10A) (HT-29; mean IC50 MCF10A / mean IC50 HT-29): 956.45
SI (NPI) (HT-29; mean IC50 NP1 / mean IC50 HT-29): 46.04
Relative potency (+ anion to no anion), Ratio + anion:no anion (HT-29; ratio of IC50, HT29): 1
Selectivity indices relative to ARPE-19, Ratio + anion:no anion (HT-29; ratio of SI (ARPE-19), HT29): 1
Selectivity indices relative to MCF10A, Ratio + anion:no anion (HT-29; ratio of SI (MCF 10A), HT29): 1
IC50 (A549; A549, 96 h, MTT, individual run, read-out: IC50 values for each replicate): 161 nM and 257 nM and 503 nM and 692 nM
IC50 (A549; A549, 96 h, MTT, mean of at least 3 independent experiments, read-out: Mean IC50): 403 nM
IC50 (A549; A549, mean of replicates, read-out: Mean IC50): 403 nM
IC50 (A549; A549, read-out: Mean IC50 values): 403 nM
Selectivity index (ARPE19) (A549; IC50 ARPE-19 / IC50 A549): 390.20
Selectivity index (MCF10A) (A549; IC50 MCF10A / IC50 A549): 401.09
Selectivity Index using the NPI non-cancer cell line (A549; IC50 NP1 / IC50 A549): 19.31
SI (ARPE19) (A549; mean IC50 ARPE-19 / mean IC50 A549): 390.20
SI (MCF10A) (A549; mean IC50 MCF10A / mean IC50 A549): 401.09
SI (NPI) (A549; mean IC50 NP1 / mean IC50 A549): 19.31
Relative potency (+ anion to no anion), Ratio + anion:no anion (A549; ratio of IC50, A549): 1
Selectivity indices relative to ARPE-19, Ratio + anion:no anion (A549; ratio of SI (ARPE-19), A549): 1
Selectivity indices relative to MCF10A, Ratio + anion:no anion (A549; ratio of SI (MCF 10A), A549): 1

From article PMC8222254, “Self-assembly of an anion receptor with metal-dependent kinase inhibition and potent in vitro anti-cancer properties” (Nature Communications, 2021)
